Assays:
[1] = tested on: gram-negative and gram-positive bacteria; conditions: against both gram-negative and gram-positive bacteria; cited from earlier work
[2] = tested on: AV node conduction and cardiac contractibility; assay: Effect on PR interval (AV node conduction) and cardiac contractibility in anesthetized guinea pig, continuous IV infusion; assay type: in vivo; conditions: infused at 6 μg/kg/min continuously IV
Procedure: The guinea pig or rat is anesthetized with pentobarbital at 40 mg/kg IP, then-connected to an EKG recorder. The animal is then placed on a small animal respirator. Aseptic surgical instruments are soaked in ethanol and then flamed. An incision is made in the chest wall to open the chest. A Walton Brody stain gauge arch is sutured to the right ventricle to measure contractile changes. The refractoriness of the AV node is determined by measuring the PR-interval on the surface EKG. Graphs can be created from the data displaying the dose related change in the PR interval to the dose related contractile augmentation. Digoxin or chiral isolates are infused through the jugular vein at concentrations (from 0.1 μM and then to 10 μM) at a constant rate by infusion pump, to determine the differential effects on the AV node and cardiac contractibility. The infusions are continued to a 50% level augmentation in contractibility or the development of ventricular tachycardia. To maintain a consistent level of anesthesia, pentobarbital 20 mg/kg IP or 10 mg/kg IV for more immediate action at 30-minute intervals may be administered.
The effect of digoxin and one of the two chiral isomers was evaluated in the guinea pig. Guinea pigs were anesthetized with pentobarbital. […] An EKG was continuously recorded. Conduction through the AV node was determined by measuring the PR interval on the surface EKG. […]

serum protein [3] = assay: Free fraction of digitoxin by centrifugation; assay type: in vitro ADME
Procedure: Free fraction of digitoxin increased with centrifugation time from 18% at 10 minutes to 37% at 80 minutes (500 g) without reaching plateau levels.

serum protein [4] = assay: Digitoxin serum protein binding by equilibrium dialysis; assay type: in vitro ADME, patients
Procedure: Digitoxin protein binding was dependent on albumin content. […] Chamber equilibrium dialysis gave similar results. […] (mean, 96.7%) and at 37° C. (mean, 96.9%). Digoxin isolates will be used under similar conditions.

[5] = tested on: digitoxin serum protein binding; assay: In vitro drug studies: ability to induce changes in digitoxin serum protein binding; conditions: procainamide 5 mg/ml, phenytoin 50 mg/ml, heparin 5 IU/ml, rifampicillin 4.5 μg/ml
Procedure: Digoxin isolates will be used under similar conditions.
The ability to induce changes in digitoxin serum protein binding was tested for the following drugs: procainamide (5 mg/ml), phenytoin (50 mg/ml), heparin (5 IU/ml), and rifampicillin (4.5 μg/ml). […] Identical procedures will be used for digoxin isolates.

CC1COc2c(N3CCN(C)CC3)c(F)cc3c(=O)c(C(=O)O)cn1c23 (single isomer, unassigned; (-)) [(−)-Ofloxacin]
times more active as the racemate [1]: 8-128 times

CC1O[C@@H](O[C@H]2C(O)C[C@H](O[C@H]3C(O)C[C@H](OC4CC[C@@]5(C)[C@H](CC[C@@H]6[C@@H]5C[C@@H](O)[C@]5(C)[C@@H](C7=CC(=O)OC7)CC[C@]65O)C4)OC3C)OC2C)CC(O)[C@@H]1O (stereo partly shown) [Digoxin]
change in PR interval on the surface EKG [2]: progressive increase
change in cardiac contractibility as measured by the strain-gauge arch [2]: increase

C[C@H]1O[C@@H](O[C@H]2[C@@H](O)C[C@H](O[C@H]3[C@@H](O)C[C@H](O[C@H]4CC[C@@]5(C)[C@H](CC[C@@H]6[C@@H]5CC[C@]5(C)[C@@H](C7=CC(=O)OC7)CC[C@]65O)C4)O[C@@H]3C)O[C@@H]2C)C[C@H](O)[C@@H]1O [digitoxin]
free fraction (serum protein [3]; centrifugation 10 minutes, 500 g): 18%
free fraction (serum protein [3]; centrifugation 60 minutes, 135 g): 5.9%
free fraction (serum protein [3]; centrifugation 60 minutes, 560 g): 15.7%
free fraction (serum protein [3]; centrifugation 80 minutes, 500 g): 37%
digitoxin binding (mean) (serum protein [4]; sera from 9 patients dialyzed at 20° C.): 96.7%
digitoxin binding (mean) (serum protein [4]; sera from 9 patients dialyzed at 37° C.): 96.9%

O=C1NC(=O)C(c2ccccc2)(c2ccccc2)N1 [phenytoin]
changes in the serum protein binding of digitoxin [5]: None of these induced significant changes

CCN(CC)CCNC(=O)c1ccc(N)cc1 [procainamide]
changes in the serum protein binding of digitoxin [5]: None of these induced significant changes

heparin
changes in the serum protein binding of digitoxin [5]: None of these induced significant changes

rifampicillin
changes in the serum protein binding of digitoxin [5]: None of these induced significant changes

From US20100029577A1, “Chiral separation, characterization and biological action of optically active isomers of digoxin” (priority 2008, published 2010)
